In patent publication US12049450B2, “Pyridyloxy-carboxylate derivative and preparation method therefor, herbicidal composition, and use” (Qingdao Kingagroot Chemical Compound Co., Ltd., priority 2018, dated 2024):

Tests used:
Assay in all cases: Post-emergence test experiment (greenhouse pot, spray at 2-3 leaf stage)
Format in all cases: in vivo
Settings in all cases: 1000 g/ha; post-emergence spray at 2-3 leaf stage; assessed after 3 weeks; fresh weight inhibition rate
[1] = system: Galium spurium
Procedure, shortened: (§1)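 Activity graded levels 0-5 by fresh-weight inhibition (level 5 above 85%, level 0 below 5%), assessed 3 weeks after treatment. Plants grown in greenhouse pots were sprayed post-emergence at 2-3 leaves using acetone/tween-80 solutions with methyl oleate synergist (1.5 L/ha).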

[2] = system: Monochoria vaginalis
Procedure, shortened: as §1

[3] = system: Echinochloa crusgalli
Procedure, shortened: as §1

[4] = system: Digitaria sanguinalis
Procedure, shortened: as §1

[5] = system: Abutilon theophrasti
Procedure, shortened: as §1

SMILES | Activity level (growth inhibition rate) Galium spurium [1] | Activity level (growth inhibition rate) Monochoria Vaginalis [2] | Activity level (growth inhibition rate) Echinochloa crusgalli [3] | Activity level (growth inhibition rate) Digitaria sanguinalis [4] | Activity level (growth inhibition rate) Abutilon theophrasti [5]
CCC(=O)Cc1ccc(CSC(=O)C(C)Oc2nc(F)c(Cl)c(N)c2Cl)cc1 (centres unmarked) [Compound 103] | 5 (Level 5: the growth inhibition rate is greater than 85%) | 5 (Level 5: the growth inhibition rate is greater than 85%) | 5 (Level 5: the growth inhibition rate is greater than 85%) | 5 (Level 5: the growth inhibition rate is greater than 85%) | 5 (Level 5: the growth inhibition rate is greater than 85%)
CC(=O)c1ccc(CCSC(=O)C(C)Oc2nc(F)c(Cl)c(N)c2Cl)cc1 (centres unmarked) [Compound 104] | 5 (Level 5: the growth inhibition rate is greater than 85%) | 5 (Level 5: the growth inhibition rate is greater than 85%) | 5 (Level 5: the growth inhibition rate is greater than 85%) | 5 (Level 5: the growth inhibition rate is greater than 85%) | 5 (Level 5: the growth inhibition rate is greater than 85%)
CC(Oc1nc(F)c(Cl)c(N)c1Cl)C(=O)OCc1ccc(S(C)(=O)=O)cc1 (centres unmarked) [Compound 105] | 5 (Level 5: the growth inhibition rate is greater than 85%) | 5 (Level 5: the growth inhibition rate is greater than 85%) | 5 (Level 5: the growth inhibition rate is greater than 85%) | 5 (Level 5: the growth inhibition rate is greater than 85%) | 5 (Level 5: the growth inhibition rate is greater than 85%)
COC(=O)Nc1cccc(CCOC(=O)C(C)Oc2nc(F)c(Cl)c(N)c2Cl)c1 (centres unmarked) [Compound 107] | 5 (Level 5: the growth inhibition rate is greater than 85%) | 5 (Level 5: the growth inhibition rate is greater than 85%) | 5 (Level 5: the growth inhibition rate is greater than 85%) | 5 (Level 5: the growth inhibition rate is greater than 85%) | 5 (Level 5: the growth inhibition rate is greater than 85%)
CC(Oc1nc(F)c(Cl)c(N)c1Cl)C(=O)OCc1cnccn1 (centres unmarked) [Compound 121] | 5 (Level 5: the growth inhibition rate is greater than 85%) | 5 (Level 5: the growth inhibition rate is greater than 85%) | 5 (Level 5: the growth inhibition rate is greater than 85%) | 5 (Level 5: the growth inhibition rate is greater than 85%) | 5 (Level 5: the growth inhibition rate is greater than 85%)
CC(Oc1nc(F)c(Cl)c(N)c1Cl)C(=O)OCc1cccnn1 (centres unmarked) [Compound 122] | 5 (Level 5: the growth inhibition rate is greater than 85%) | 5 (Level 5: the growth inhibition rate is greater than 85%) | 5 (Level 5: the growth inhibition rate is greater than 85%) | 5 (Level 5: the growth inhibition rate is greater than 85%) | 5 (Level 5: the growth inhibition rate is greater than 85%)
CC(Oc1nc(F)c(Cl)c(N)c1Cl)C(=O)SCc1ccnnc1 (centres unmarked) [Compound 123] | 5 (Level 5: the growth inhibition rate is greater than 85%) | 5 (Level 5: the growth inhibition rate is greater than 85%) | 5 (Level 5: the growth inhibition rate is greater than 85%) | 5 (Level 5: the growth inhibition rate is greater than 85%) | 5 (Level 5: the growth inhibition rate is greater than 85%)
